The text below walks through data of the supplement of paper PMC10627819.

Common to all, as to assay: Bliss interaction score (quartile over a dose matrix) (fitness difference); higher = more antagonism (negative = synergy)
In one assay the test system is S. pneumoniae D39V. In outline: (§1)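 Quartiles summarise the Bliss score over technical, biological and donor/recipient replicates, where the score is observed minus expected fitness under a product model. Expected fitness uses single-drug values inferred from combination data. Fitness is OD595 at entry into stationary phase over the plate's robust no-drug mean, capped at 1.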

For the next assay, the system named is S. aureus Newman. In outline:
as §1

Another assay deals with B. subtilis 168. In a few lines: as §1
Another assay relates to S. aureus DSM 20231. In a few lines:
as §1
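Also: first quartile when negative (synergy) and third quartile when positive (antagonism).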

On to `O=C(O)c1cn(C2CC2)c2cc(N3CCNCC3)c(F)cc2c1=O` [Ciprofloxacin] + CO[C@@]12[C@H](COC(N)=O)C3=C(C(=O)C(C)=C(N)C3=O)N1C[C@@H]1N[C@@H]12 [MitomycinC], for which the Bliss interaction score was -0.111 with S. pneumoniae D39V, 0.0577 in the assay with S. aureus Newman, -0.108 in the assay with B. subtilis 168 and -0.057 with S. aureus DSM 20231.

With `O=C(O)c1cn(C2CC2)c2cc(N3CCNCC3)c(F)cc2c1=O` [Ciprofloxacin] + N[C@@H]1CONC1=O [CycloserineD], the Bliss interaction score is 0.0695 in the assay with S. pneumoniae D39V, -0.105 with S. aureus Newman, -0.0971 in the assay with B. subtilis 168 and -0.0461 in the assay on S. aureus DSM 20231.

Regarding `O=C(O)c1cn(C2CC2)c2cc(N3CCNCC3)c(F)cc2c1=O` [Ciprofloxacin] + O=C(O)[C@H]1/C(=C/CO)O[C@@H]2CC(=O)N21 [Clavulanic], the Bliss interaction score is -0.0997 in the assay on S. pneumoniae D39V, 0.18 with S. aureus Newman, -0.154 with B. subtilis 168 and -0.184 in the assay with S. aureus DSM 20231.

As to `O=C(O)c1cn(C2CC2)c2cc(N3CCNCC3)c(F)cc2c1=O` [Ciprofloxacin] + Oc1cc(Cl)ccc1Oc1ccc(Cl)cc1Cl [Triclosan], the Bliss interaction score was 0.0508 in the assay on S. pneumoniae D39V, -0.0217 in the assay with S. aureus Newman, -0.0391 in the assay on B. subtilis 168 and 0.0355 with S. aureus DSM 20231.

Take `CN(C)[C@@H]1C(O)=C(C(N)=O)C(=O)[C@@]2(O)C(O)=C3C(=O)c4c(O)ccc(Cl)c4[C@@](C)(O)[C@H]3C[C@@H]12` [Clortetracycline] + C/C(=C\C(=O)OCCCCCCCCC(=O)O)C[C@@H]1OC[C@H](C[C@@H]2O[C@H]2[C@@H](C)[C@H](C)O)[C@@H](O)[C@H]1O [Pseudomonic acid]: the Bliss interaction score in the assay with S. pneumoniae D39V is 0.0729; with S. aureus Newman, 0.0209; with B. subtilis 168, -0.0689; in the assay with S. aureus DSM 20231, 0.0276.

As to `CN(C)[C@@H]1C(O)=C(C(N)=O)C(=O)[C@@]2(O)C(O)=C3C(=O)c4c(O)ccc(Cl)c4[C@@](C)(O)[C@H]3C[C@@H]12` [Clortetracycline] + CC1(C)S[C@@H]2[C@H](NC(=O)Cc3ccccc3)C(=O)N2[C@H]1C(=O)O [PenicillinG], the Bliss interaction score was -0.0336 in the assay on S. pneumoniae D39V, -0.0614 in the assay on S. aureus Newman, 0.123 in the assay on B. subtilis 168 and 0.0499 in the assay with S. aureus DSM 20231.

As to `CN(C)[C@@H]1C(O)=C(C(N)=O)C(=O)[C@@]2(O)C(O)=C3C(=O)c4c(O)ccc(Cl)c4[C@@](C)(O)[C@H]3C[C@@H]12` [Clortetracycline] + CC1=C\[C@@H](O)CC(=O)Cc2nc(co2)C(=O)N2CCC=C2C(=O)O[C@H](C(C)C)[C@H](C)/C=C/C(=O)NC\C=C\1 [Virginiamycin M1], the Bliss interaction score in the assay with S. pneumoniae D39V is -0.0413; in the assay with S. aureus Newman it was -0.049; with B. subtilis 168, 0.0837; with S. aureus DSM 20231, -0.0704.

Consider `CN(C)[C@@H]1C(O)=C(C(N)=O)C(=O)[C@@]2(O)C(O)=C3C(=O)c4c(O)ccc(Cl)c4[C@@](C)(O)[C@H]3C[C@@H]12` [Clortetracycline] + CC(=O)NC[C@H]1CN(c2ccc(N3CCOCC3)c(F)c2)C(=O)O1 [Linezolid], for which the Bliss interaction score in the assay with S. pneumoniae D39V was -0.0813; in the assay on S. aureus Newman it was -0.0457; in the assay on B. subtilis 168 it was -0.259; in the assay with S. aureus DSM 20231 it was -0.0326.

On to `CN(C)[C@@H]1C(O)=C(C(N)=O)C(=O)[C@@]2(O)C(O)=C3C(=O)c4c(O)ccc(Cl)c4[C@@](C)(O)[C@H]3C[C@@H]12` [Clortetracycline] + CC(=O)O[C@H]1C[C@@]2(C)[C@@H](C[C@@H](O)[C@H]3[C@@]4(C)CC[C@@H](O)[C@@H](C)[C@@H]4CC[C@@]32C)/C1=C(\CCC=C(C)C)C(=O)O [Fusidic acid], for which the Bliss interaction score is -0.0508 in the assay on S. pneumoniae D39V, 0.0488 with S. aureus Newman, -0.11 with B. subtilis 168 and 0.026 with S. aureus DSM 20231.

For the compound `CN(C)[C@@H]1C(O)=C(C(N)=O)C(=O)[C@@]2(O)C(O)=C3C(=O)c4c(O)ccc(Cl)c4[C@@](C)(O)[C@H]3C[C@@H]12` [Clortetracycline] + CC(C1CCC(C(O1)OC2C(CC(C(C2O)OC3C(C(C(CO3)(C)O)NC)O)N)N)N)NC [Gentamicin], the Bliss interaction score is -0.183 in the assay on S. pneumoniae D39V (main component drawn), 0.141 in the assay on S. aureus Newman (main component drawn), 0.181 with B. subtilis 168 (main component drawn) and 0.0919 in the assay with S. aureus DSM 20231 (main component drawn).

As to `CN(C)[C@@H]1C(O)=C(C(N)=O)C(=O)[C@@]2(O)C(O)=C3C(=O)c4c(O)ccc(Cl)c4[C@@](C)(O)[C@H]3C[C@@H]12` [Clortetracycline] + CCC(C)C1C(=O)NC(=C)C(=O)NC(C(=O)NC(CSCC(C(=O)N1)NC(=O)/C(=C/C)/NC(=O)C(C(C)CC)N)C(=O)NC2C(SCC(NC(=O)CNC(=O)C3CCCN3C2=O)C(=O)NC(CCCCN)C(=O)NC4C(SCC(NC(=O)CNC(=O)C(NC(=O)C(NC(=O)C(NC(=O)CNC4=O)C)CC(C)C)CCSC)C(=O)NC(CC(=O)N)C(=O)NC(CCSC)C(=O)NC(CCCCN)C(=O)NC5C(SCC6C(=O)NC(C(=O)NC(CSC(C(C(=O)N6)NC(=O)C(NC5=O)C)C)C(=O)NC(CO)C(=O)NC(C(C)CC)C(=O)NC(CC7=CN=CN7)C(=O)NC(C(C)C)C(=O)NC(=C)C(=O)NC(CCCCN)C(=O)O)CC8=CN=CN8)C)C)C)CC(C)C [Nisin], the Bliss interaction score was -0.122 in the assay on S. pneumoniae D39V (main component drawn), 0.0486 in the assay on S. aureus Newman (main component drawn), 0.0718 in the assay on B. subtilis 168 (main component drawn) and 0.0616 with S. aureus DSM 20231 (main component drawn).

For the compound `CN(C)[C@@H]1C(O)=C(C(N)=O)C(=O)[C@@]2(O)C(O)=C3C(=O)c4c(O)ccc(Cl)c4[C@@](C)(O)[C@H]3C[C@@H]12` [Clortetracycline] + CCCCCCCCCC(=O)N[C@@H]1[C@H]([C@@H]([C@H](O[C@H]1OC2=C3C=C4C=C2OC5=C(C=C(C=C5)[C@H]([C@H]6C(=O)N[C@@H](C7=C(C(=CC(=C7)O)OC8[C@H]([C@H]([C@@H]([C@H](O8)CO)O)O)O)C9=C(C=CC(=C9)[C@H](C(=O)N6)NC(=O)[C@@H]4NC(=O)[C@@H]1C2=CC(=CC(=C2)OC2=C(C=CC(=C2)[C@H](C(=O)N[C@H](CC2=CC(=C(O3)C=C2)Cl)C(=O)N1)N)O)O)O)C(=O)O)O[C@H]1[C@@H]([C@H]([C@@H]([C@H](O1)CO)O)O)NC(=O)C)Cl)CO)O)O [Teicoplanin], the Bliss interaction score was -0.0412 in the assay on S. pneumoniae D39V (main component drawn), 0.0527 in the assay with S. aureus Newman (main component drawn), 0.0958 in the assay on B. subtilis 168 (main component drawn) and 0.111 with S. aureus DSM 20231 (main component drawn).
